Source: PubChem BioAssay AID1259407 (Chemical Carcinogenesis Research Information System (CCRIS), 2018)
Calls of active or inactive are those of the source. No rule for the calls is given here.

System: CCRIS mutagenicity, Ames/micronucleus/aberration tests
Assay: CCRIS mutagenicity studies
[1] = Test System: AMES SALMONELLA TYPHIMURIUM, Strain/Indicator: TA100, Metabolic Activation: NONE, Method: PREINCUBATION
[2] = Test System: AMES SALMONELLA TYPHIMURIUM, Strain/Indicator: TA98, Metabolic Activation: NONE, Method: STANDARD PLATE
[3] = Test System: AMES SALMONELLA TYPHIMURIUM, Strain/Indicator: TA100, Metabolic Activation: NONE, Method: STANDARD PLATE
[4] = Test System: AMES SALMONELLA TYPHIMURIUM, Strain/Indicator: TA100, Metabolic Activation: RAT, LIVER, S-9, AROCLOR 1254, Method: STANDARD PLATE
[5] = Test System: AMES SALMONELLA TYPHIMURIUM, Strain/Indicator: TA102, Metabolic Activation: NONE, Method: STANDARD PLATE
[6] = Test System: AMES SALMONELLA TYPHIMURIUM, Strain/Indicator: TA1535, Metabolic Activation: NONE, Method: STANDARD PLATE

Measured: mutagenic call

CCc1ccccc1
inactive: Test System: AMES SALMONELLA TYPHIMURIUM, Strain/Indicator: TA97, Metabolic Activation: HAMSTER, LIVER, S-9, AROCLOR 1254, Method: PREINCUBATION inactive; negative | Test System: AMES SALMONELLA TYPHIMURIUM, Strain/Indicator: TA97, Metabolic Activation: NONE, Method: PREINCUBATION inactive; negative | Test System: AMES SALMONELLA TYPHIMURIUM, Strain/Indicator: TA97, Metabolic Activation: RAT, LIVER, S-9, AROCLOR 1254, Method: PREINCUBATION inactive; negative | Test System: AMES SALMONELLA TYPHIMURIUM, Strain/Indicator: TA98, Metabolic Activation: HAMSTER LIVER S-9, AROCLOR 1254 (10 OR 30%), Method: PREINCUBATION inactive; negative | Test System: AMES SALMONELLA TYPHIMURIUM, Strain/Indicator: TA98, Metabolic Activation: HAMSTER, LIVER, S-9, AROCLOR 1254, Method: PREINCUBATION inactive; negative | Test System: AMES SALMONELLA TYPHIMURIUM, Strain/Indicator: TA98, Metabolic Activation: NONE, Method: PREINCUBATION inactive; negative | Test System: AMES SALMONELLA TYPHIMURIUM, Strain/Indicator: TA98, Metabolic Activation: RAT LIVER S-9, AROCLOR 1254 (10 OR 30%), Method: PREINCUBATION inactive; negative | Test System: AMES SALMONELLA TYPHIMURIUM, Strain/Indicator: TA98, Metabolic Activation: RAT, LIVER, S-9, AROCLOR 1254, Method: PREINCUBATION inactive; negative | Test System: AMES SALMONELLA TYPHIMURIUM, Strain/Indicator: TA100, Metabolic Activation: HAMSTER LIVER S-9, AROCLOR 1254 (10 OR 30%), Method: PREINCUBATION inactive; negative | Test System: AMES SALMONELLA TYPHIMURIUM, Strain/Indicator: TA100, Metabolic Activation: HAMSTER, LIVER, S-9, AROCLOR 1254, Method: PREINCUBATION inactive; negative | [1] inactive; negative | Test System: AMES SALMONELLA TYPHIMURIUM, Strain/Indicator: TA100, Metabolic Activation: RAT LIVER S-9, AROCLOR 1254 (10 OR 30%), Method: PREINCUBATION inactive; negative | Test System: AMES SALMONELLA TYPHIMURIUM, Strain/Indicator: TA100, Metabolic Activation: RAT, LIVER, S-9, AROCLOR 1254, Method: PREINCUBATION inactive; negative | Test System: AMES SALMONELLA TYPHIMURIUM, Strain/Indicator: TA1535, Metabolic Activation: HAMSTER LIVER S-9, AROCLOR 1254 (10 OR 30%), Method: PREINCUBATION inactive; negative | Test System: AMES SALMONELLA TYPHIMURIUM, Strain/Indicator: TA1535, Metabolic Activation: HAMSTER, LIVER, S-9, AROCLOR 1254, Method: PREINCUBATION inactive; negative | Test System: AMES SALMONELLA TYPHIMURIUM, Strain/Indicator: TA1535, Metabolic Activation: NONE, Method: PREINCUBATION inactive; negative | Test System: AMES SALMONELLA TYPHIMURIUM, Strain/Indicator: TA1535, Metabolic Activation: RAT LIVER S-9, AROCLOR 1254 (10 OR 30%), Method: PREINCUBATION inactive; negative | Test System: AMES SALMONELLA TYPHIMURIUM, Strain/Indicator: TA1535, Metabolic Activation: RAT, LIVER, S-9, AROCLOR 1254, Method: PREINCUBATION inactive; negative | Test System: AMES SALMONELLA TYPHIMURIUM, Strain/Indicator: TA1537, Metabolic Activation: HAMSTER LIVER S-9, AROCLOR 1254 (10 OR 30%), Method: PREINCUBATION inactive; negative | Test System: AMES SALMONELLA TYPHIMURIUM, Strain/Indicator: TA1537, Metabolic Activation: NONE, Method: PREINCUBATION inactive; negative | Test System: AMES SALMONELLA TYPHIMURIUM, Strain/Indicator: TA1537, Metabolic Activation: RAT LIVER S-9, AROCLOR 1254 (10 OR 30%), Method: PREINCUBATION inactive; negative
active: Test System: MOUSE LYMPHOMA, Strain/Indicator: L5178Y (TK+/TK-), Metabolic Activation: NONE, Method: SUSPENSION/PLATE active; positive

ONc1cccc(-c2ccccc2)c1
inactive: [2] inactive; negative | [3] inactive; negative

CCN(N)c1ccccc1
active: [3] active; positive | Test System: AMES SALMONELLA TYPHIMURIUM, Strain/Indicator: TA102, Metabolic Activation: RAT, LIVER, S-9, AROCLOR 1254, Method: STANDARD PLATE active; positive
inactive: [4] inactive; negative | [5] inactive; negative

O=BOO
active: [5] active; positive | Test System: E. COLI, Strain/Indicator: WP2 (PKM101), Metabolic Activation: NONE, Method: STANDARD PLATE active; positive | Test System: E. COLI, Strain/Indicator: WP2 UVRA (PKM101), Metabolic Activation: NONE, Method: STANDARD PLATE active; positive

COc1ccc2[nH]cc(CCNC(C)=O)c2c1
inactive: Test System: AMES SALMONELLA TYPHIMURIUM, Strain/Indicator: TA97, Metabolic Activation: NONE, Method: STANDARD PLATE inactive; negative | Test System: AMES SALMONELLA TYPHIMURIUM, Strain/Indicator: TA97, Metabolic Activation: RAT, LIVER, S-9, AROCLOR 1254, Method: STANDARD PLATE inactive; negative | Test System: AMES SALMONELLA TYPHIMURIUM, Strain/Indicator: TA97A, Metabolic Activation: NONE, Method: STANDARD PLATE inactive; negative | Test System: AMES SALMONELLA TYPHIMURIUM, Strain/Indicator: TA97A, Metabolic Activation: RAT LIVER S-9, PHENOBARBITOL/BETA-NAPHTHOFLAVONE, Method: STANDARD PLATE inactive; negative | [2] inactive; negative | Test System: AMES SALMONELLA TYPHIMURIUM, Strain/Indicator: TA98, Metabolic Activation: RAT LIVER S-9, PHENOBARBITOL/BETA-NAPHTHOFLAVONE, Method: STANDARD PLATE inactive; negative | Test System: AMES SALMONELLA TYPHIMURIUM, Strain/Indicator: TA98, Metabolic Activation: RAT, LIVER, S-9, AROCLOR 1254, Method: STANDARD PLATE inactive; negative | [1] inactive; negative | [3] inactive; negative | Test System: AMES SALMONELLA TYPHIMURIUM, Strain/Indicator: TA100, Metabolic Activation: RAT LIVER S-9, PHENOBARBITOL/BETA-NAPHTHOFLAVONE, Method: PREINCUBATION inactive; negative | Test System: AMES SALMONELLA TYPHIMURIUM, Strain/Indicator: TA100, Metabolic Activation: RAT LIVER S-9, PHENOBARBITOL/BETA-NAPHTHOFLAVONE, Method: STANDARD PLATE inactive; negative | [4] inactive; negative | [6] inactive; negative | Test System: AMES SALMONELLA TYPHIMURIUM, Strain/Indicator: TA1535, Metabolic Activation: RAT LIVER S-9, PHENOBARBITOL/BETA-NAPHTHOFLAVONE, Method: STANDARD PLATE inactive; negative | Test System: E.COLI, Strain/Indicator: WP2/UVRA, Metabolic Activation: NONE, Method: STANDARD PLATE inactive; negative | Test System: E.COLI, Strain/Indicator: WP2/UVRA, Metabolic Activation: RAT LIVER S-9, PHENOBARBITOL/BETA-NAPHTHOFLAVONE, Method: STANDARD PLATE inactive; negative

Oc1cccc2cc3cccc(O)c3c(O)c12
inactive: [3] inactive; negative | [4] inactive; negative | [6] inactive; negative | Test System: AMES SALMONELLA TYPHIMURIUM, Strain/Indicator: TA1535, Metabolic Activation: RAT, LIVER, S-9, AROCLOR 1254, Method: STANDARD PLATE inactive; negative | Test System: E. COLI, Strain/Indicator: WP2 UVRA, Metabolic Activation: HAMSTER, LIVER, S-9, AROCLOR 1254, Method: STANDARD PLATE inactive; negative | Test System: E. COLI, Strain/Indicator: WP2 UVRA, Metabolic Activation: HAMSTER, LIVER, S-9, Method: STANDARD PLATE inactive; negative | Test System: E. COLI, Strain/Indicator: WP2 UVRA, Metabolic Activation: MOUSE, LIVER, S-9, AROCLOR 1254, Method: STANDARD PLATE inactive; negative | Test System: E. COLI, Strain/Indicator: WP2 UVRA, Metabolic Activation: MOUSE, LIVER, S-9, Method: STANDARD PLATE inactive; negative | Test System: E. COLI, Strain/Indicator: WP2 UVRA, Metabolic Activation: NONE, Method: STANDARD PLATE inactive; negative | Test System: E. COLI, Strain/Indicator: WP2 UVRA, Metabolic Activation: RAT, LIVER, S-9, AROCLOR 1254, Method: STANDARD PLATE inactive; negative | Test System: E. COLI, Strain/Indicator: WP2 UVRA, Metabolic Activation: RAT, LIVER, S-9, Method: STANDARD PLATE inactive; negative
